These results are taken from paper PMC9306587 (European Journal of Immunology, 2022).

Assay [1] has as its target T1, HLA-E*01:03 (Homo sapiens, UniProt P13747).
T1 construct: made in house
Put plainly: pHLA Thermofluor (thermal shift) assay. The format is binding. The conditions noted are these: Table S2; SYPRO Orange thermal shift, pHLA 0.25 mg/mL in PBS, 10 to 95°C at 1°C/min, triplicate; two independent experiments. As for the experimental part: Thermal shift assay experiments were performed using a RT‐PCR instrument (Quantstudio 6, Applied Biosystems). SYPRO Orange protein gel stain (5000× stock solution) was diluted in PBS to yield a 75× working solution. In a 96‐well plate, 23 μL of pHLA at 0.25 mg/mL was added to 2 μL of SYPRO Orange working solution to a final volume of 25 μL, with each pHLA prepared in triplicate. Mixtures were heated from 10 to 95°C with a temperature increment of 1°C/min. Fluorescence was detected using the FAM filter set, with excitation and emission wavelength at 495 and 518 nm, respectively. Data analysis was performed using Protein Thermal Shift Software version 1.4 (Thermofisher Scientific) to determine Tm.

Assay [2] has as its target T1, HLA-E*01:03. The experiment in a line: pHLA-E complex stability by SPR (ILT2 binding over time). The conditions noted are these: for t1/2: Table S2, SPR BIAcore T200, biotinylated pHLA-E monomers on streptavidin CM5 chip, 1 μM soluble ILT2 at regular intervals over 5 h, 25°C. As for the experimental part:
HLA‐E heavy chain (without transmembrane domain and with or without a C‐terminal biotinylation tag, AviTagsequence) and β2m were expressed and refolded with the peptide of interest and subsequently purified, as previously described. To biotinylate complexes prior to size exclusion chromatography, complexes were AviTag treated with biotin‐protein ligase (BirA) according to the manufacturer's instructions (Avidity BirA‐500 kit).
The stability of all pHLA‐E complexes was assessed by SPR using a BIAcore T200 instrument. Purified biotinylated pHLA‐E monomers (HLA‐E*01:03 was used throughout) were immobilized onto a streptavidin‐coupled CM5 sensor chip. A total of 1 μM of soluble ILT2 was flowed over the chip at 10 μL/min for 60 s. ILT2 binding to pHLA‐E complexes was measured at regular intervals over 5 h and responses were normalized by subtracting the bulk buffer response of a control flow cell containing no pHLA. Binding t 1/2 was calculated by plotting % activity against time using the Biacore T200 evaluation software version 3.0 and GraphPad Prism version 8.3.0.

The next assay concerns the target T2, HLA-ES147C (Homo sapiens, UniProt P13747, S168C).
T2 construct: made in house
Type of assay: binding.

As to VMAPRTLLL [LA13-11], the “Average Tm” value at HLA-E*01:03 [1] turned out to be 47.87 °C. In addition, the “t1/2” value on HLA-E*01:03 [2] and on HLA-E*01:03 [2] (representative of at least two independent experiments) was 2.8 h throughout. The “t1/2(hours) HLA-E” value at HLA-E*01:03 [2] (Table S4, SPR with ILT2 over 5 h) is 2.8 h. For the same sequence, the “t1/2(hours) HLA-ES147C(H3C)” value at HLA-ES147C stood at 16.74 h.
